Consider ten compounds from patent US8987195B2 (priority 2012, dated 2015).

Usually EC50 stands for the concentration giving half of the maximal effect.

The structures appear in SMILES notation.

For one assay, the system named is HCV genotype 1b replicon. The experiment in a line: HCV replicon assay, genotype 1b replicon EC50. The format is cell-based, Hepatitis C virus. As to conditions: Hepatitis C virus, genotype 1b replicon; read-out: EC50 [gt-1b]. Here is the method:
Measuring Compound Inhibitory Potency (Genotype 1b Replicon EC50 (nM))
Measurement of inhibition by compounds was performed using the HCV replicon system. Several different replicons encoding different HCV genotypes or mutations were used. In addition, potency measurements were made using different formats of the replicon assay, including different ways of measurements and different plating formats. See Jan M. Vrolijk et al., A replicons-based bioassay for the measurement of interferons in patients with chronic hepatitis C, 110 J. VIROLOGICAL METHODS 201 (2003); Steven S. Carroll et al., Inhibition of Hepatitis C Virus RNA Replication by 2′-Modified Nucleoside Analogs, 278(14) J. BIOLOGICAL CHEMISTRY 11979 (2003). However, the underlying principles are common to all of these determinations, and are outlined below.
Stable neomycin phosphotransferase encoding replicon-harboring cell lines were used, so all cell lines were maintained under G418 selection prior to the assay. In some cases the cell lines encoded a luciferase:Neo^r fusion and could be assayed either directly by determination of RNA copy number, or indirectly through measurement of the luciferase activity.
To initiate an assay, replicon cells were plated in the presence of a dilution series of test compound in the absence of G418. Typically, the assays were performed in a 96-well plate format for manual operation, or a 384 well plate in an automated assay. Replicon cells and compound were incubated for 24-48 hours, depending on the assay. At the end of the assay, cells are washed free of media and compound and then lysed. For direct quantitation, RNA levels were measured by ^32P-probe hybridization and protection, or in a TAQMAN based assay and normalized to cellular cyclophilin A RNA levels. In some cases, luciferase activity was measured using a conventional luciferase assay. In all cases EC50 determinations were calculated as a percent of a DMSO control by fitting the data to a four parameter fit function.
Background: A replicon is a self-replicating genome or part of one, used to study replication in cells.
Regarding `CC(C)(C)OC(=O)N[C@H]1CCCCC/C=C\[C@@H]2C[C@@]2(C(=O)NS(=O)(=O)C2CC2)NC(=O)[C@@H]2C[C@]3(CCc4c(c(-c5cccc(F)c5)nc5ccccc45)O3)CN2C1=O` [Example 15, tert-Butyl (2R,6S,13aS,14aR,16aS,Z)-14a-(cyclopropylsulfonylcarbamoyl)-5′-(3-fluorophenyl)-5,16-dioxo-1′,2′,3,5,6,7,8,9,10,11,13a,14,14a,15,16,16a-hexadecahydro-1H -spiro[cyclopropa[e]pyrrolo[1,2-a][1,4]diazacyclopentadecine-2,3′-pyrano[2,3-c]quinoline]-6-ylcarbamate], the EC50 is 9.36 nM.
The same measure, in the same setting: to `CC(C)COC(=O)N[C@H]1CCCCC/C=C\[C@@H]2C[C@@]2(C(=O)NS(=O)(=O)C2(C)CC2)NC(=O)[C@@H]2C[C@]3(CCc4c(c(-c5cccc(F)c5)nc5ccccc45)O3)CN2C1=O` [Example 21, Isobutyl (2R,6S,13aS,14aR,16aS,Z)-5′-(3-fluorophenyl)-14a-(1-methylcyclopropylsulfonylcarbamoyl)-5,16-dioxo-1′,2′,3,5,6,7,8,9,10,11,13a,14,14a,15,16,16a-hexadecahydro-1H-spiro[cyclopropa[e]pyrrolo[1,2-a][1,4]diazacyclopentadecine-2,3′-pyrano[2,3-c]quinoline]-6-ylcarbamate] belongs 0.81 nM; to `CC(C)(C)OC(=O)N[C@H]1CCCCC/C=C\C2CC2(C(=O)NS(=O)(=O)C2(C)CC2)NC(=O)C2C[C@]3(CCc4c(c(C5CC5)nc5ccccc45)O3)CN2C1=O` (stereo partly drawn) [Example 18, tert-Butyl (2R,6S,13aS,14aR,16aS,Z)-5′-cyclopropyl-14a-(1-methylcyclopropylsulfonylcarbamoyl)-5,16-dioxo-1′,2′,3,5,6,7,8,9,10,11,13a,14,14a,15,16,16a-hexadecahydro-1H-spiro[cyclopropa[e]pyrrolo[1,2-a][1,4]diazacyclopentadecine-2,3′-pyrano[2,3-c]quinoline-]-6-ylcarbamate], 0.77 nM.
On to `CC1(OC(=O)N[C@H]2CCCCC/C=C\[C@@H]3C[C@@]3(C(=O)NS(=O)(=O)C3(C)CC3)NC(=O)[C@@H]3C[C@]4(CCc5c(c(-c6cccc(F)c6)nc6ccccc56)O4)CN3C2=O)CC1` [Example 22, 1-Methylcyclopropyl (2R,6S,13aS,14aR,16aS,Z)-5′-(3-fluorophenyl)-14a-(1-methylcyclopropylsulfonylcarbamoyl)-5,16-dioxo-1′,2′,3,5,6,7,8,9,10,11,13a,14,14a,15,16, 16a-hexadecahydro-1H-spiro[cyclopropa[e]pyrrolo[1,2-a][1,4]diazacyclopentadecine-2,3′-pyrano[2,3-c]quinoline]-6-ylcarbamate], for which the EC50 stood at 4.14 nM.
Same read-out and setting: to `Cc1nc2ccccc2c2c1O[C@]1(CC2)C[C@H]2C(=O)N[C@]3(C(=O)NS(=O)(=O)C4(C)CC4)C[C@H]3/C=C\CCCCC[C@H](NC(=O)OC3(C)CCC3)C(=O)N2C1` [Example 80, 1-methylcyclobutyl [(2R,6S,12Z,13aS,14aR,16aS)-5′-methyl-14a-{[(1-methylcyclopropyl)sulfonyl]carbamoyl}-5,16-dioxo-1,1′,2′,5,6,7,8,9,10,11,13a,14,14a,15,16,16a-hexadecahydrospiro[cyclopropa[e]pyrrolo[1,2-a][1,4]diazacyclopentadecine-2,3′-pyrano[2,3-c]quinolin]-6-yl]carbamate] belongs 1.47 nM; to `CC(C)(C)NC(=O)N[C@H]1CCCCC/C=C\[C@@H]2C[C@@]2(C(=O)NS(=O)(=O)C2(C)CC2)NC(=O)[C@@H]2C[C@]3(CCc4c(c(-c5cccc(F)c5)nc5ccccc45)O3)CN2C1=O` [Example 23, (2R,6S,13aS,14aR,16aS,Z)-6-(3-tert-Butylureido)-5′-(3-fluorophenyl)-N-(1-methylcyclopropylsulfonyl)-5,16-dioxo-1′,2′,3,5,6,7,8,9,10,11,13a,14,14a,15,16,16a-hexadecahydro-1H-spiro[cyclopropa[e]pyrrolo[1,2-a][1,4]diazacyclopentadecine-2,3′-pyrano[2,3-c]quinoline]-14a-carboxamide], 9.13 nM.
The same measure, in the same setting: to `Cc1nc2ccccc2c2c1O[C@]1(CC2)C[C@H]2C(=O)N[C@]3(C(=O)NS(=O)(=O)C4(C)CC4)C[C@H]3/C=C\CCCCC[C@H](NC(=O)CC(F)(F)F)C(=O)N2C1` [Example 84, (2R,6S,12Z,13aS,14aR,16aS)-5′-methyl-N-[(1-methylcyclopropyl)sulfonyl]-5,16-dioxo-6-[(3,3,3-trifluoropropanoyl)amino]-1,1′,2′,6,7,8,9,10,11,13a,14,15,16,16a-tetradecahydrospiro[cyclopropa[e]pyrrolo[1,2-a][1,4]diazacyclopentadecine-2,3′-pyrano[2,3-c]quinoline]-14a(5H)-carboxamide] belongs 7.79 nM; to `CC(C)OC(=O)N[C@H]1CCCCC/C=C\[C@@H]2C[C@@]2(C(=O)NS(=O)(=O)C2(C)CC2)NC(=O)[C@@H]2C[C@]3(CCc4c(c(-c5cccc(F)c5)nc5ccccc45)O3)CN2C1=O` [Example 89, propan-2-yl [(2R,6S,12Z,13aS,14aR,16aS)-5′-(3-fluorophenyl)-14a-{[(1-methylcyclopropyl)sulfonyl]carbamoyl}-5,16-dioxo-1,1′,2′,5,6,7,8,9,10,11,13a,14,14a,15,16,16a-hexadecahydrospiro[cyclopropa[e]pyrrolo[1,2-a][1,4]diazacyclopentadecine-2,3′-pyrano[2,3-c]quinolin]-6-yl]carbamate], 2.85 nM.
Same read-out and setting: to `Cc1nc2ccccc2c2c1O[C@]1(CC2)C[C@H]2C(=O)N[C@]3(C(=O)NS(=O)(=O)C4(C)CC4)C[C@H]3/C=C\CCCCC[C@H](NC(=O)NC(C)(C)C)C(=O)N2C1` [Example 76, (2R,6S,12Z,13aS,14aR,16a5)-6-[(tert-butylcarbamoyl)amino]-5′-methyl-N-[(1-methylcyclopropyl)sulfonyl]-5,16-dioxo-1,1′,2′,6,7,8,9,10,11,13a,14,15,16,16a-tetradecahydrospiro[cyclopropa[e]pyrrolo[1,2-a][1,4]diazacyclopentadecine-2,3′-pyrano[2,3-c]quinoline]-14a(5H)-carboxamide] belongs 11.9 nM.

Still in this assay, the particulars now being: genotype 1b replicon; read-out: EC50 [gt-1b].
With `COc1ccc2nc(C(F)(F)F)c3c(c2c1)[C@H](OC(=O)NS(=O)(=O)C1(C)CC1)C[C@]1(C[C@H]2C(=O)N[C@]4(C(=O)NS(=O)(=O)C5(C)CC5)C[C@H]4/C=C\CCCCC[C@H](NC(=O)OC(C)(C)C)C(=O)N2C1)O3` [Example 53, tert-Butyl ((1′R,2S,6S,13aS,14aR,16aS,Z)-9′-methoxy-14a-(((1-methylcyclopropyl)sulfonyl)carbamoyl)-1′-((((1-methylcyclopropyl)sulfonyl)carbamoyl)oxy)-5,16-dioxo-5′-(trifluoromethyl)-1′,2′,3,5,6,7,8,9,10,11,13a,14,14a,15,16,16a-hexadecahydro-1H-spiro[cyclopropa[e]pyrrolo[1,2-a][1,4]diazacyclopentadecine-2,3′-pyrano[2,3-c]quinolin]-6-yl)carbamate], the EC50 is 15.9 nM.
